This passage reports GI50 and TGI results from PubChem BioAssay (NCI).

Structures are written as SMILES.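 48-hour exposure; five concentrations; linearly interpolated endpoints. GI50 is the concentration that inhibits growth by half. Definition used: TGI = concentration required for complete inhibition of growth.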

Test systems include HT29 colon; NCI/ADR-RES ovarian; SK-MEL-5 melanoma; HOP-92 NSCLC; SK-MEL-28 melanoma; T-47D breast; SN12C renal; NCI-H522 lung; SF-268 CNS; OVCAR-3 ovarian.
Common to all, as to assay: NCI anticancer screen, dose series, 48 h

As to `O=C(c1ccccc1Nc1ccnc(C(F)(F)F)c1)N1CCN(c2cccc(Cl)c2)CC1`, the GI50 with HT29 colon is 19.2 µM; with NCI/ADR-RES ovarian, 16.2 µM; in the experiment on SK-MEL-5 melanoma, 8.29 µM; in the experiment with HOP-92 NSCLC, 0.914 µM; with SK-MEL-28 melanoma it was 26.5 µM; in the experiment with T-47D breast, 10.7 µM. Moreover, the GI50 with SN12C renal is 16.4 µM; in the experiment with NCI-H522 lung, 15.4 µM; in the experiment on SF-268 CNS, 29.3 µM; with OVCAR-3 ovarian, 19 µM. The TGI is 53.3 µM with HT29 colon; 59.5 µM in the experiment on NCI/ADR-RES ovarian; 21.8 µM in the experiment with SK-MEL-5 melanoma; 25 µM in the experiment on HOP-92 NSCLC; over 100 µM in the experiment on SK-MEL-28 melanoma; 74.4 µM in the experiment with T-47D breast. For the same compound, the TGI is 45 µM in the experiment with SN12C renal, 63.5 µM in the experiment with NCI-H522 lung, over 100 µM in the experiment on SF-268 CNS and over 80.9 µM in the experiment with OVCAR-3 ovarian.
With `O=C(Nn1c(-c2ccccc2)nc2ccccc2c1=O)c1ccccn1`, the TGI in the experiment on HT29 colon, with NCI/ADR-RES ovarian, in the experiment with SK-MEL-5 melanoma, with HOP-92 NSCLC, in the experiment with SK-MEL-28 melanoma and with T-47D breast was over 100 µM each time. In addition, the TGI in the experiment on SN12C renal, in the experiment with NCI-H522 lung, with SF-268 CNS and with OVCAR-3 ovarian was over 100 µM throughout.
With `COc1ccc(-c2nn(-c3cccc(Cl)c3)cc2C=C(C#N)C#N)cc1`, the GI50 with HT29 colon is 2.48 µM; in the experiment with NCI/ADR-RES ovarian it was 2.49 µM; in the experiment on SK-MEL-5 melanoma, 2.28 µM; with HOP-92 NSCLC, 1.26 µM; with SK-MEL-28 melanoma, 2.35 µM; in the experiment on T-47D breast it was 3.34 µM. The GI50 in the experiment with SN12C renal is 3.35 µM; with NCI-H522 lung it was 2.21 µM; in the experiment on SF-268 CNS it was 2.5 µM; in the experiment with OVCAR-3 ovarian it was 2.2 µM. In addition, the TGI with HT29 colon was 5.56 µM; in the experiment on NCI/ADR-RES ovarian, 7.17 µM; in the experiment with SK-MEL-5 melanoma it was 5.87 µM; in the experiment with HOP-92 NSCLC, 3.98 µM; in the experiment on SK-MEL-28 melanoma it was 5.84 µM; in the experiment with T-47D breast it was 21.8 µM. Besides, the TGI is over 100 µM in the experiment on SN12C renal, 5.76 µM in the experiment on NCI-H522 lung, 9.14 µM in the experiment on SF-268 CNS and 4.9 µM in the experiment with OVCAR-3 ovarian.
As for `S=c1nc(-c2nc(=S)[nH]c3c2CCCCCCCCCC3)c2c([nH]1)CCCCCCCCCC2`, the TGI in the experiment with HT29 colon, with NCI/ADR-RES ovarian, in the experiment on SK-MEL-5 melanoma, in the experiment on HOP-92 NSCLC, in the experiment on SK-MEL-28 melanoma and in the experiment with T-47D breast was over 100 µM in each case. The TGI in the experiment on SN12C renal, with NCI-H522 lung, in the experiment on SF-268 CNS and in the experiment with OVCAR-3 ovarian was over 100 µM each time.
For `Cl.[Pt].[c-]1ccccc1-c1ccccn1.c1ccc(P(c2ccccc2)C([PH+](c2ccccc2)c2ccccc2)[PH+](c2ccccc2)c2ccccc2)cc1`, the GI50 was 2.3 µM with HT29 colon; 5.21 µM with NCI/ADR-RES ovarian; 1.25 µM in the experiment with SK-MEL-5 melanoma; 1.41 µM in the experiment with HOP-92 NSCLC; 2.64 µM with SK-MEL-28 melanoma; 0.916 µM in the experiment with T-47D breast. The GI50 with SN12C renal is 0.942 µM; in the experiment on NCI-H522 lung, 1.57 µM; in the experiment with SF-268 CNS, 2.59 µM; in the experiment on OVCAR-3 ovarian, 1.59 µM. Besides, the TGI in the experiment on HT29 colon is 8.13 µM; with NCI/ADR-RES ovarian, 76.5 µM; with SK-MEL-5 melanoma it was 2.8 µM; in the experiment on HOP-92 NSCLC, 5.18 µM; in the experiment on SK-MEL-28 melanoma, 9.7 µM; with T-47D breast, 19.5 µM. Also, the TGI in the experiment on SN12C renal stood at 7.03 µM; in the experiment on NCI-H522 lung, 7.14 µM; in the experiment on SF-268 CNS it was 20.9 µM; in the experiment with OVCAR-3 ovarian, 7.99 µM.
Take `Nc1ccc(-c2nc3ccc4[nH]ncc4c3c3c2CCCC3)cc1F`: the GI50 in the experiment with HT29 colon was 1.53 µM; in the experiment with NCI/ADR-RES ovarian it was 1.86 µM; in the experiment with SK-MEL-5 melanoma, 0.986 µM; in the experiment on HOP-92 NSCLC, 1.7 µM; in the experiment with SK-MEL-28 melanoma, 1.81 µM; with T-47D breast, 1.2 µM. Besides, the GI50 was 1.96 µM in the experiment on SN12C renal, 0.989 µM in the experiment with NCI-H522 lung, 1.76 µM in the experiment with SF-268 CNS and 1.89 µM with OVCAR-3 ovarian. Further, the TGI in the experiment on HT29 colon was determined as 18.5 µM; with NCI/ADR-RES ovarian it was 16.6 µM; in the experiment on SK-MEL-5 melanoma, 4.53 µM; with HOP-92 NSCLC, 11.2 µM; in the experiment on SK-MEL-28 melanoma, 6.86 µM; in the experiment on T-47D breast it was 7.77 µM. Also, the TGI with SN12C renal amounted to 13.2 µM; with NCI-H522 lung, 6.93 µM; in the experiment with SF-268 CNS, 19.2 µM; in the experiment with OVCAR-3 ovarian it was 18.5 µM.
As for `COc1ccc(C(=O)c2cc(OC)c(OC)c(OC)c2)cc1OC(C)=O`, the GI50 in the experiment on HT29 colon is 1.15 µM; in the experiment on NCI/ADR-RES ovarian, under 0.0153 µM; in the experiment on SK-MEL-5 melanoma, 0.0325 µM; in the experiment on HOP-92 NSCLC it was 1.73 µM; in the experiment with SK-MEL-28 melanoma, 11.2 µM; in the experiment with T-47D breast it was 19.9 µM. In addition, the GI50 is 0.0509 µM in the experiment on SN12C renal, 0.017 µM in the experiment with NCI-H522 lung, 0.0883 µM in the experiment on SF-268 CNS and 0.0292 µM with OVCAR-3 ovarian. Also, the TGI with HT29 colon is over 100 µM; with NCI/ADR-RES ovarian it was over 100 µM; in the experiment on SK-MEL-5 melanoma, 0.311 µM; in the experiment with HOP-92 NSCLC, over 100 µM; in the experiment with SK-MEL-28 melanoma, over 100 µM; with T-47D breast, over 100 µM. The TGI with SN12C renal is over 100 µM; in the experiment on NCI-H522 lung, over 100 µM; in the experiment with SF-268 CNS, over 100 µM; in the experiment on OVCAR-3 ovarian it was 0.0848 µM.
For `C#CCN1C(=O)/C(=c2\sc3n(c2=O)C2C(NN=3)N(CC)C(=O)N2CC)c2ccccc21` (stereo not given), the GI50 in the experiment with HT29 colon was 0.387 µM; with NCI/ADR-RES ovarian it was 0.712 µM; in the experiment with SK-MEL-5 melanoma, 0.529 µM; in the experiment with HOP-92 NSCLC, 1.55 µM; with SK-MEL-28 melanoma, 0.734 µM; with T-47D breast, 0.639 µM. The GI50 with SN12C renal is 0.797 µM; with NCI-H522 lung it was 0.447 µM; in the experiment with SF-268 CNS, 5.5 µM; in the experiment with OVCAR-3 ovarian, 0.316 µM. The TGI with HT29 colon is over 100 µM; with NCI/ADR-RES ovarian, 21.9 µM; in the experiment on SK-MEL-5 melanoma it was over 85.9 µM; with HOP-92 NSCLC it was 78.7 µM; in the experiment on SK-MEL-28 melanoma, over 100 µM; with T-47D breast, over 100 µM. Moreover, the TGI with SN12C renal is over 100 µM; in the experiment on NCI-H522 lung, over 76 µM; with SF-268 CNS, over 100 µM; with OVCAR-3 ovarian, 1.69 µM.
